ChEMBL document CHEMBL1130718, “(2Z,4E)-5-(5,6-dichloro-2-indolyl)-2-methoxy-N-(1,2,2,6,6- pentamethylpiperidin-4-yl)-2,4-pentadienamide, a novel, potent and selective inhibitor of the osteoclast V-ATPase” (Bioorg Med Chem Lett, 1998)

Assays:
[1] = Compound selectivity was assessed using vacuolar type proton ATPase from human kidney cortex (hK)
[2] = species: Homo sapiens; assay: In vitro human osteoclast activity for bone resorption was assessed by ELISA assay; assay type: functional
[3] = species: Homo sapiens; assay: Ability to inhibit bone resorption in human osteoclast obtained from giant cell tumors of bone; assay type: functional
[4] = Compound selectivity was assessed using vacuolar type proton ATPase from chicken adrenal glands (cAG); assay type: tissue-based, Adrenal gland
[5] = Compound selectivity was assessed using vacuolar type proton ATPase from human kidney cortex(hK)

Compound	IC50 [1] [nM]	IC50 [2] [nM]	IC50 [3] [nM]	IC50 [4] [nM]	IC50 [5] [nM]
CO/C(=C\C=C/c1cc2cc(Cl)c(Cl)cc2[nH]1)C(=O)NC1CC(C)(C)N(C)C(C)(C)C1	2500	–	–	–	–
CO/C(=C\C=C\c1cc2cc(Cl)c(Cl)cc2[nH]1)C(=O)NC1CC(C)(C)N(C)C(C)(C)C1	158	3.4	13.5	125	–
CO/C(=C/C=C/c1cc2cc(Cl)c(Cl)cc2[nH]1)C(=O)NC1CC(C)(C)N(C)C(C)(C)C1	–	–	–	–	6330
